Literature values, collected in patent US20230158004A1, “ENTERIC-COATED PREPARATION COMPRISING PIRFENIDONE HAVING IMPROVED SAFETY AND STABILITY, AND METHOD FOR PREPARING SAME” (YUNGJIN PHARM. CO., LTD., priority 2020, published 2023).

Details: healthy adults and patients with idiopathic pulmonary fibrosis, total 1,650 people

- anorexia: 11.4%
- diarrhea: 18.8%
- headache: 10.1%
- indigestion: 16.1%
- nausea: 32.4%
- photosensitivity: 9.3%
- rash: 26.2%
Structure (SMILES): Cc1ccc(=O)n(-c2ccccc2)c1 [pirfenidone, 5-methyl-1-phenyl-2-(1H)-pyridone]
